Entries after “also recorded” stand apart in the source; their conditions may differ. Where two headings read alike, the source gives them in different places.
How the values were obtained:
[1] = test system: cefotaxime (CTX) non-susceptible Gram-negative bacteria (GNB); assay: DETECT assay with 96-bacterial isolate panel, ROC curve analysis against cefotaxime (CTX) phenotype; type: cell-based; conditions: 2.5×10^6 CFU/mL, DETECT score A405 nm 30 min minus 0 min; for Sensitivity (ROC Curve Analyzed with CTX): 96-bacterial isolate panel (47 CTX susceptible, 49 CTX non-susceptible); for AUC (95% CI) (ROC Curve Analyzed with CTX) / Specificity (ROC Curve Analyzed with CTX): 96-bacterial isolate panel
Source text: A pool of 5 probe hits were each evaluated using a 96-bacterial isolate panel. In these studies, the 96-bacterial isolate panel was comprised of 47 cefotaxime (CTX) susceptible and 49 CTX non-susceptible, Gram-negative bacteria (GNB). As described above, CTX is a surrogate to detect ceftriaxone susceptibility and, therefore, was applied as the reference phenotype to group true positive, CTX-non-susceptible (include both CTX resistant and intermediate), and true negative, CTX-susceptible. Whole cell suspensions were prepared to yield an experimental concentration of 2.5×10^6 CFU/mL. In a 96-well plate, wells were prepared with all DETECT reagents, except for the targeting probe under investigation. Bacterial suspensions were transferred to the prepared wells of the plate and an initial timepoint was recorded (0 minutes) upon addition of a stock solution of a given probe (Sub-1, (7R)-7-(2-(1H-tetrazol-1-yl)acetamido)-8-oxo-3-((phenylthio)methyl)-5-thia-1-azabicyclo[4.2.0]oct-2-ene-2-carboxylic acid (BAD-5835), (7R)-7-(3-methylisoxazole-5-carboxamido)-8-oxo-3-((phenylthio)methyl)-5-thia-1-azabicyclo[4.2.0]oct-2-ene-2-carboxylic acid (BAD-1468), (7R)-8-oxo-3-((phenylthio)methyl)-7-(2-(pyridin-3-yl)acetamido)-5-thia-1-azabicyclo[4.2.0]oct-2-ene-2-carboxylic acid (BAD-5627), and (7R)-8-oxo-3-((phenylthio)methyl)-7-((S)-piperidine-3-carboxamido)-5-thia-1-azabicyclo[4.2.0]oct-2-ene-2-carboxylic acid (BAD-3462), (7R)-8-oxo-7-(2-phenoxyacetamido)-3-((phenylthio)methyl)-5-thia-1-azabicyclo[4.2.0]oct-2-ene-2-carboxylic acid (BAD-7465)). The absorbance of the wells was collected at 405 nm at 0 and 30 minutes, using a simple benchtop plate reader. The “DETECT Score” values were then calculated for each sample by subtracting the 405 nm absorbance recorded at the 0-minute timepoint from the 30-minute timepoint. Therefore, each sample was identified to have a unique DETECT score that was then can be group into positive and negative phenotype subgroups for threshold value determination via ROC curve analysis.

[2] = Aqueous stability: non-selective hydrolysis of the probe, k(hydro); type: physicochemical; conditions: for Stability k(hydro): rate of non-selective hydrolysis of the probe and turn on of the DETECT system in the absence of its biomarker target
Experimental: In order to find use in rapid diagnostic tests, ESBL-targeting probes that had at least the following favorable criteria were evaluated: • 1. Aqueous stability—measured through non-selective hydrolysis • a. Favorable criteria: k(hydro)<0.0062 mM/min • 2. Activity towards target β-lactamase target CTX-M-15—measured using recombinant β-lactamase • a. Favorable criteria: k(β-lactamase)>0.0568 mM/min • 3. Activity towards off-target lower generation β-lactamase (prioritizing the most common, TEM-1b) • a. Favorable criteria: k(TEM-1b)<0.02135 mM/min

recombinant CTX-M-15 = recombinant CTX-M-15 (Escherichia coli, UniProt Q9EXV5); assay: Dry reagent test strip, Study 2: activation by recombinant CTX-M-15, reflectance; conditions: 1 or 4 nM CTX-M-15, read every 4 minutes for 20 minutes
Experimental: If the small molecule targeting probe was not severely affected by the fabrication process, then in the presence of CTX-M-15, it will be hydrolyzed and liberate the triggering unit to initiate the signaling cascade thus providing the yellow colorimetric response.
The sample test strip received 1 or 4 nM of β-lactamase, while the control received buffer and the reflectance was monitored every 4 minutes for 20 minutes (see FIG. 8B).

papain = target: T1, papain (Carica papaya, UniProt P00784); assay: Dry reagent test strip, Study 1: papain activation by cysteine, reflectance; conditions: coating and drying at 37° C.; judged by reflectance of control strip
T1 sequence (P00784 134-345): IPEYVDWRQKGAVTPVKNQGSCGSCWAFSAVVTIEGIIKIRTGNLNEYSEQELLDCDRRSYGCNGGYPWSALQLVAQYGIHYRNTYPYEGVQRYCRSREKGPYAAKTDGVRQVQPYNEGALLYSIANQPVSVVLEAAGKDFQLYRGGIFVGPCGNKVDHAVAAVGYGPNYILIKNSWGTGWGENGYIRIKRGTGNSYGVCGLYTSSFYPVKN
Experimental: The second coating consisted of adding the water-soluble components (buffer salts and papain) and dried a second time in the oven at 37° C. […] Multiple formulation combinations of the DETECT components were examined to determine optimal change of reflectance over time.
Excess solution is removed with glass rods and the paper placed in the oven and dried for 60 minutes at 37° C. In a dry room (relative humidity<20%), the dried filter paper is adhered onto a polyester film support. […] The order of applying the DETECT components typically includes adding the methanol soluble components first followed by the water-soluble components.
Papain activity by cysteine activation was assessed by using two test strips where one received 100 μM cysteine (sample) while the other received buffer (control).
In study 1, different formulations (i.e., different amounts of the papain and BAPA) were used to prepare strips to obtain the highest possible reflectance change when the yellow-colored signal is generated from activating papain (se FIG. 8) and measured with a Konica Minolta reflectance spectrophotometer. […]
Study 1. […] The difference of percent reflectance (% Rscore) between sample and control is determined by subtracting the percent reflectance of the control strip from the sample strip for each time point to yield an increasing % Rscore over time (see FIG. 9A-B).

[3] = cited from earlier work

Sequence of recombinant CTX-M-15 (Q9EXV5 entry or part of it): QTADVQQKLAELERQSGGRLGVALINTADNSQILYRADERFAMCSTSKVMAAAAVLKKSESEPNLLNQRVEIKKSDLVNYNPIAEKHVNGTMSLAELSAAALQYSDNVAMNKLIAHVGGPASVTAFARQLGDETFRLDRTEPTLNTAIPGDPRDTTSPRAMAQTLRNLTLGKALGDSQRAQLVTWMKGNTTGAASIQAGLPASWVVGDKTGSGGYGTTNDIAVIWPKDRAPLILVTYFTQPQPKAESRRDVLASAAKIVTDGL

Structure (SMILES)	Sensitivity (ROC Curve Analyzed with CTX) [1]	AUC (95% CI) (ROC Curve Analyzed with CTX) [1]	Specificity (ROC Curve Analyzed with CTX) [1]	Stability k(hydro) [2]	detection of recombinant CTX-M-15 on test strip (change in reflectance) (recombinant CTX-M-15)	stability of the probe to the test strip fabrication process (papain)	stability and promiscuity characteristics for rapidly detecting ceftriaxone non-susceptibility directly from urine [2]	extinction coefficient ([3]; absorbance wavelength of 405 nm)	extinction coefficient ([3]; absorbance wavelength of 570 nm)	fluorescent quantum yield (ϕ) ([3]; in water)
Cc1cc(C(=O)N[C@@H]2C(=O)N3C(C(=O)O)=C(CSc4ccccc4)CSC23)on1 (stereo partly drawn) [BAD-1468, (7R)-7-(3-methylisoxazole-5-carboxamido)-8-oxo-3-((phenylthio)methyl)-5-thia-1-azabicyclo[4.2.0]oct-2-ene-2-carboxylic acid]	0.8406	0.8846	0.8519	0.00198 M/min	–	–	–	–	–	–
O=C(O)C1=C(CSc2ccccc2)CSC2[C@H](NC(=O)[C@H]3CCCNC3)C(=O)N12 (stereo partly drawn) [BAD-3462, (7R)-8-oxo-3-((phenylthio)methyl)-7-((S)-piperidine-3-carboxamido)-5-thia-1-azabicyclo[4.2.0]oct-2-ene-2-carboxylic acid]	0.8116	0.8717	0.8519	0.00558 M/min	–	–	–	–	–	–
O=C(Cc1cccnc1)N[C@@H]1C(=O)N2C(C(=O)O)=C(CSc3ccccc3)CSC12 (stereo partly drawn) [BAD-5627, (7R)-8-oxo-3-((phenylthio)methyl)-7-(2-(pyridin-3-yl)acetamido)-5-thia-1-azabicyclo[4.2.0]oct-2-ene-2-carboxylic acid]	0.9275	0.9614	0.9259	0.00352 M/min	–	–	–	–	–	–
O=C(Cn1cnnn1)N[C@@H]1C(=O)N2C(C(=O)O)=C(CSc3ccccc3)CSC12 (stereo partly drawn) [BAD-5835, (7R)-7-(2-(1H-tetrazol-1-yl)acetamido)-8-oxo-3-((phenylthio)methyl)-5-thia-1-azabicyclo[4.2.0]oct-2-ene-2-carboxylic acid]	0.8823	0.9586	0.9259	0.0044 M/min	retained its ability to detect the presence of CTX-M-15; also recorded: significant change in reflectance	did NOT decompose; also recorded: did not show any sign of degradation	–	–	–	–
O=C(COc1ccccc1)N[C@@H]1C(=O)N2C(C(=O)O)=C(CSc3ccccc3)CSC12 (stereo partly drawn) [BAD-7465, (7R)-8-oxo-7-(2-phenoxyacetamido)-3-((phenylthio)methyl)-5-thia-1-azabicyclo[4.2.0]oct-2-ene-2-carboxylic acid]	0.7143	0.7717	0.8077	0.00161 M/min	–	–	–	–	–	–
O=C(Cc1ccccc1)N[C@@H]1C(=O)N2C(C(=O)O)=C(CSc3ccccc3)CSC12 (stereo partly drawn) [Sub-1, (7R)-8-oxo-7-(2-phenylacetamido)-3-((phenylthio)methyl)-5-thia-1-azabicyclo[4.2.0]oct-2-ene-2-carboxylic acid, reference compound]	0.9206	0.7717	0.8125	0.0062 M/min	–	–	not adequate	–	–	–
Nc1ccc([N+](=O)[O-])cc1 [p-nitroaniline]	–	–	–	–	–	–	–	9,767 M-1 cm^−1	–	–
O=c1ccc2nc3ccc(O)cc3oc-2c1 [resorufin]	–	–	–	–	–	–	–	–	56,000 M^1 cm^−1	0.74
